Data set [1] is described as follows: Multiple administration pharmacokinetic study of ARI-001 in wild type mice. The class given is in vivo, C57BL/6 mice. The note with it: 996, 1493, 2240, 3360 mg/kg oral gavage daily, 30 days. The procedure:
Wild type C57BL/6 mice were dosed with ARI-001 in solution via oral gavage daily for 30 consecutive days. Over the course of five 24-hour periods, blood was collected, and the resultant plasma was analyzed for concentrations of ARI-001. Four doses were used: 996 mg/kg, 1493 mg/kg, 2240 mg/kg, and 3360 mg/kg. […] However, these values were time-independent, as there was no trend observed between these parameters and days of administration. See FIGS. 15A-15D and FIGS. 16A-16B.

Data set [2] is described as follows: Once daily vs twice daily dosing of ARI-001, plasma lipids in animal models. The format is in vivo. The note with it: ARI-001 given once daily.
Data set [3] deals with high fat-fed hamsters. The experiment in a line: Plasma glucose in high fat-fed hamsters dosed 18 days. The format is in vivo, Golden Syrian hamster. The note with it: ARI-001 1120 and 2240 mg/kg. The procedure:
These animals were dosed for 18 consecutive days, while being on a HF/HS diet for a total of nearly 5 weeks. We also examined the glucose levels in the plasma of these animals. For pharmacokinetic studies, we utilized wild type mice for both single and repeated administration study. Finally, pharmacokinetic studies were corroborated by data from single and repeated administration to monkeys.

Data set [4] in a line: Pharmacokinetics of multiple administrations of ARI-001 to fasted monkeys. The format is in vivo, Macaque monkeys. The note with it: 288 mg/kg oral gavage once per day, seven days. Here is the method:
ARI-001 was administered to monkeys via oral gavage once per day for a total of seven days. Blood samples were collected after the first and after the last administrations to measure plasma concentrations of ARI-001.

Data set [5] in a line: ARI-001 concentrations in liver and adipose tissue vs plasma. The format is in vivo, Golden Syrian hamster. The note with it: HF/HS hamsters dosed 18 days; p<0.01. The procedure: Tissue samples were harvested from hamsters in the above-described 18-day experiment to determine the concentrations of ARI-001 in both liver and adipose tissue. Briefly, liver and adipose samples were harvested at the termination of the experiment; the samples were flash frozen in liquid nitrogen and then stored at −80° C. until used for analysis. To prepare for analysis, a sample of liver was excised from the frozen mass, weighed, and homogenized with a tissue grinder followed by sonication in buffer. The solid materials were then removed by centrifugation. To prepare for LC-MS analysis, the homogenate was then treated to the same preparation technique described for plasma preparation (vide supra). A sample of adipose was excised from the frozen mass, and transferred to a mortar and pestle cooled with liquid nitrogen. During grinding, liquid nitrogen was added to ensure the sample of adipose remained solid. The ground sample was transferred to a tared tube to weigh total sample. This ground sample was extracted with methanol, and this compound-containing methanol was separated from lipid by cooling to −20° C. […]
FIG. 8 graphs the correlation between concentrations of ARI-001 in plasma versus liver (left), and in plasma versus adipose (right). […] Pearson r was determined using all data points illustrated. P-value was determined for a 2-tailed t-test using all data points illustrated.

Data set [6] concerns high fat-fed hamsters. The experiment in a line: Liver function tests (AST, ALT) in plasma of high fat-fed hamsters dosed 18 days. The class given is in vivo, Golden Syrian hamster. Here is the method: These animals were dosed for 18 consecutive days, while being on a HF/HS diet for a total of nearly 5 weeks. We also examined the glucose levels in the plasma of these animals. For pharmacokinetic studies, we utilized wild type mice for both single and repeated administration study. Finally, pharmacokinetic studies were corroborated by data from single and repeated administration to monkeys. […] AST and ALT were measured using commercially available kits (Bio-Quant Diagnostic Kits, San Diego, Calif.). As expected, AST and ALT values from untreated hamsters (vehicle group) were very high, as the high fat diet leads to hepatomegaly and fatty liver. This disease state is reflected in the elevated AST and ALT levels.

Data set [7] in a line: Single-dose pharmacokinetic study of ARI-001 in wild type mice (PO, IP). The class given is in vivo, C57BL/6 mice. The note with it: oral gavage or intraperitoneal injection. Here is the method:
Plasma from the 19 hamsters dosed with ARI-001 in the above described 18-day study was analyzed for concentrations of ARI-001. Concentrations were determined for these samples, which were collected 24 hours after the final dose was administered. Briefly, plasma drug concentrations for the non-GLP pharmacokinetic experiments were determined by LC-MS using an Applied Biosystems 4000Qtrap spectrometer with electrospray ionization. Samples were prepared for analysis by precipitation of plasma proteins with cold methanol. HPLC of the samples was done with an Agilent Eclipse C18 column and a methanol/water gradient containing 0.1% formic acid and 5 mM ammonium acetate. ARI-001 was detected using multiple reaction monitoring (MRM) in the positive ion mode. For quantitation, a standard curve was measured by addition of known amounts of ARI-001 to plasma from untreated animals and preparing in a manner identical to the samples from treated animals. […] Pearson r values were determined using all data points, as was the two-tailed P-value for the data set.
Wild type C57BL/6 mice were dosed with a single administration of ARI-001 in solution either via oral gavage (PO) or via intraperitoneal injection (IP). Blood samples were then collected at various time points over a 24-hour period; plasma was then analyzed for concentrations of ARI-001 as described earlier. […]

A short description of data set [8]: Stability of ARI-001 stored at 50° C., purity by LC-MS. The class given is physicochemical. The procedure: ARI-001 was synthesized as described above. Purity was determined independently before use in experiments by examination via liquid chromatography-mass spectroscopy (LC-MS). A sample of material was dissolved in water/acetonitrile and injected onto a Discovery C-18 reverse phase column. The mobile phase began as 2%:98% acetonitrile:water, which was held for three minutes, after which a linear gradient was started that ran over 6 minutes, increasing the percent of acetonitrile until a final ratio of 98%:2% acetonitrile:water was reached. This final ratio was held for 3 minutes. The major peak was identified as ARI-001.
Stability was determined by storing ARI-001 under 50° C. with no specified humidity requirement. At various time points over the course of 3 months (90 days), a small sample (<5 mg) of ARI-001 was collected for analysis using LC-MS under the same conditions as used for purity determination (vide supra).

For data set [9] the following is noted: niacin 1500 mg (roughly equimolar dose); niacin was no arm of the trial; cited from earlier work.

Take `O=C(O)c1ccc(CCN2CCOCC2)nc1` [ARI-001]: in data set [1], the “Cmax levels and total 24-hour exposure (AUC) vs days of administration” value is reported as “time-independent”; the “Cmax levels and total 24-hour exposure (AUC) vs dose” value is “dose-dependent”. For the same molecule, the “changes in plasma lipids, once daily vs same total dose twice daily” value in data set [2] is reported as “greater than or equal to the lipid altering effects observed with the same total dose of ARI-001 given twice daily”. In addition, the “glucose levels in comparison to the vehicle cohort” value with high fat-fed hamsters [3] was “neither dose of ARI-001 produced any significant change”. In data set [4], the “Cmax value day 7 versus day 1” value was “higher on day 7 than on day 1”, the “concentrations 24 hours after the first or the last doses” value is “essentially identical” and the “plasma concentrations on day 1 versus day 7” value was “very little difference”. Further, in data set [5], the “correlation between concentrations of ARI-001 in plasma versus adipose” value is listed as “highly statistically significant” and the “correlation between concentrations of ARI-001 in plasma versus liver” value is “highly statistically significant”. Further, the “AST in plasma vs vehicle” value with high fat-fed hamsters [6] (ARI-001 2240 mg/kg) was “drastically reduced”. Besides, in the data set on high fat-fed hamsters [6] (ARI-001 1120 and 2240 mg/kg, dose-dependent), the “ALT in plasma vs vehicle” value was “similarly reduced”. The “remaining plasma concentration of ARI-001 at the 24 hour timepoint” value in data set [7] is “undetectable”. The “purity of ARI-001 on storage” value in data set [8] (after 90 days) amounted to 95.9%. Moreover, the “purity of ARI-001 on storage” value in [8] (unregulated humidity, 65 days) is recorded as 98.9%.

Regarding `O=C(O)c1cccnc1` [Niacin, nicotinic acid], in data set [9], the Cmax entry is reported as “about 30,000 ng/mL”.

Values taken from patent US9212142B2 (Trustees of Tufts College, priority 2010, dated 2015).
